Data from ChEMBL document CHEMBL1201862, “PubChem BioAssay data set” (2004).
Active and inactive are the calls of the source.

Assays:
[1] = biological target: Heat shock protein HSP 90-alpha (Homo sapiens, UniProt P07900); type: functional, organism-based
[2] = biological target: T1, Polyadenylate-binding protein 1 (Homo sapiens, UniProt P11940); experiment: PABP1 MLLE–PAM2 interaction inhibitors, dose response, miRNA deadenylation inhibitor project, biochemical, fluorescence polarization, Cy5-PAM2 peptide, secondary (AID 602260); type: functional; conditions: read-out: IC50_Mean
T1 sequence (P11940 whole entry): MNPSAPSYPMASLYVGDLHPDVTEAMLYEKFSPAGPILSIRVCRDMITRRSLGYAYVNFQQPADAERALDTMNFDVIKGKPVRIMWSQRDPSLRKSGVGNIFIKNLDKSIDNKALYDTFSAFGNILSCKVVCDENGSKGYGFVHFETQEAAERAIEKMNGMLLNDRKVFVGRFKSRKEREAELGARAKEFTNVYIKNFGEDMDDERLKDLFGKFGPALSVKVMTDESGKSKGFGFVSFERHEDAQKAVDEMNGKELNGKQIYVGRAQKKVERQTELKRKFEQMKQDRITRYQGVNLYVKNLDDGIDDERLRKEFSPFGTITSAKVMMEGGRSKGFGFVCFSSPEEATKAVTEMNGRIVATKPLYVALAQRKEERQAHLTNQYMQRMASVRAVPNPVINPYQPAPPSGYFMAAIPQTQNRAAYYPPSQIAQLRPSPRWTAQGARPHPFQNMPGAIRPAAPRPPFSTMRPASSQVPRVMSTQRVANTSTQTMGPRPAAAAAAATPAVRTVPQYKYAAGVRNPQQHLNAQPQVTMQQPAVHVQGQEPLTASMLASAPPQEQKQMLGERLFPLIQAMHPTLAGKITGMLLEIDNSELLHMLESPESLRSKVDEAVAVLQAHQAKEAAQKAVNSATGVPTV

[3] = biological target: T1, Polyadenylate-binding protein 1; experiment: PABP1 MLLE–PAM2 binding inhibitor potency, dose response, biochemical, fluorescence polarization, FITC-PAM2 peptide (AID 602259); type: functional; conditions: read-out: IC50_Mean
Genome polyprotein = Genome polyprotein (dengue virus type 2, UniProt P29990); experiment: Dengue-2 NS5 methyltransferase inhibitors, primary screen, biochemical, confirmation dose response (AID 588689); type: functional
Genome polyprotein, sequence (P29990 2492-3391 limits assumed): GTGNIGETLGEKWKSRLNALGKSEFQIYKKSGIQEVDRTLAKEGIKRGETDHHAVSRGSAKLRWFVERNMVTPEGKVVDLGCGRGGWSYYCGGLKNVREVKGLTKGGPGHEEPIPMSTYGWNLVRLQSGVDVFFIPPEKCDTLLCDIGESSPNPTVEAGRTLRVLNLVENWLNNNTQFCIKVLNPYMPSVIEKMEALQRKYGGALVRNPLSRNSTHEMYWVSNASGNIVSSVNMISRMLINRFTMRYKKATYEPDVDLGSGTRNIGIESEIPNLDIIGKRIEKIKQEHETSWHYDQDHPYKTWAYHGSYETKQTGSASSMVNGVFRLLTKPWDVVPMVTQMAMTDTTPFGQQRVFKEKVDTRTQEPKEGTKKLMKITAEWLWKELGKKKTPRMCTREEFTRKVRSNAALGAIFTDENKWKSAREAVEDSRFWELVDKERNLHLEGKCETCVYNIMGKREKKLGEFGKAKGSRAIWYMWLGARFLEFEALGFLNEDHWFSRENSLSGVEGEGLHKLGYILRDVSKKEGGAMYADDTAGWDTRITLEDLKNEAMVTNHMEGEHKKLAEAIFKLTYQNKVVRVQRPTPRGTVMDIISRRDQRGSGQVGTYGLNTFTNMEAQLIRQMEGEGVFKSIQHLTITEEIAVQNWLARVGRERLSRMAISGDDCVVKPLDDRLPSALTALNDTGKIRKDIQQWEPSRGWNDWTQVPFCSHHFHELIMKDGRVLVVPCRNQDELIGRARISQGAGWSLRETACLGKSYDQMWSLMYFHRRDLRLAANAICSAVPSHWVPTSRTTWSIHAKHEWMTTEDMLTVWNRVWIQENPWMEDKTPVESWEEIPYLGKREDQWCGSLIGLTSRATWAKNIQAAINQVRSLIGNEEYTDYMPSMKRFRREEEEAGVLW

Large T antigen = Large T antigen (Simian virus 40, UniProt P03070); type: functional, Betapolyomavirus macacae;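 note: Confirmatory-stage PubChem screen for compounds that inhibit SV40 T antigen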
[4] = biological target: T2, Short transient receptor potential channel 4 (Mus musculus, UniProt Q9QUQ5); experiment: mouse TRPC4 channel inhibitors, dose response, cell-based, HEK293 TRPC4/mu-opioid, Fluo-4 calcium (AID 434942); type: functional;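 note: potency of inhibitors blocking the TRPC4 calcium response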
T2 sequence (Q9QUQ5 whole entry): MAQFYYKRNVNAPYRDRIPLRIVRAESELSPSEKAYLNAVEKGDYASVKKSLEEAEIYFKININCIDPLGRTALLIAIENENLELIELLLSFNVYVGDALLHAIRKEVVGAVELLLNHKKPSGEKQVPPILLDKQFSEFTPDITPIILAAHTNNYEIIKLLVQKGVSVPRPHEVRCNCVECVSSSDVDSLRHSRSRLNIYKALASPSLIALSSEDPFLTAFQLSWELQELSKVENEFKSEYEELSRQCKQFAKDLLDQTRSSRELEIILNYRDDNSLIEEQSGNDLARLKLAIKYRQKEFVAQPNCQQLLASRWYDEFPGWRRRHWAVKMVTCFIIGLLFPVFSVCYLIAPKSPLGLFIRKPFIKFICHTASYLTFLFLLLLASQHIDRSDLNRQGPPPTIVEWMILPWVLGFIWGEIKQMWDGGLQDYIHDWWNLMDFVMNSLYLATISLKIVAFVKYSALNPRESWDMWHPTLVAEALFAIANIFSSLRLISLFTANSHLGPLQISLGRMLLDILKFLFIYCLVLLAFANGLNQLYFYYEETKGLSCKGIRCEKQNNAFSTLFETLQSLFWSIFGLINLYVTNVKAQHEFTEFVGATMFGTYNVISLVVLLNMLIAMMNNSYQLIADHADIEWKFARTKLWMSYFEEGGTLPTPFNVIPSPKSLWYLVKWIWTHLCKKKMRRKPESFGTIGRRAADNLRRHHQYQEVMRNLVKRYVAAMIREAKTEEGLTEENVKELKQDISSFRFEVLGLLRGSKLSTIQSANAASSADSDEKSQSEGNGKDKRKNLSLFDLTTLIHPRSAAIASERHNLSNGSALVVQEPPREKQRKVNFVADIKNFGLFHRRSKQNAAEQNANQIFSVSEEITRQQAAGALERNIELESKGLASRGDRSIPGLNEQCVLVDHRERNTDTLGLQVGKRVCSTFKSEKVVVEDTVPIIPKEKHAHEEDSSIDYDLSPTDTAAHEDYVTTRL

[5] = biological target: T3, RNA-binding protein pos-1 (Caenorhabditis elegans, UniProt G5EF15); experiment: inhibitors of POS-1/mex-3 RNA binding, dose response, biochemical, fluorescence polarization (AID 1964);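 note: purified POS-1 fused to maltose binding protein made in E. coli; potency of compounds blocking POS-1 binding to fluorescent RNA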
T3 sequence (G5EF15 whole entry): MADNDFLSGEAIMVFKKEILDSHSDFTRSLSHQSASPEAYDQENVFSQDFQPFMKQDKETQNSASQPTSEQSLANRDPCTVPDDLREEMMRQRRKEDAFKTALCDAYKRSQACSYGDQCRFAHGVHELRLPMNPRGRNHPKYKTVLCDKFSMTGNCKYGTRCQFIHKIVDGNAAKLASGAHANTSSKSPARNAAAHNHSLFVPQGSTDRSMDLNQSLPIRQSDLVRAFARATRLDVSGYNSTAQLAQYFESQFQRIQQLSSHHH

[6] = biological target: T4, Zinc finger protein mex-5 (Caenorhabditis elegans, UniProt Q9XUB2); experiment: MEX-5/TCR-2 RNA interaction inhibitors, dose response, biochemical, C. elegans, fluorescence polarization (AID 1960)
T4 sequence (Q9XUB2 whole entry): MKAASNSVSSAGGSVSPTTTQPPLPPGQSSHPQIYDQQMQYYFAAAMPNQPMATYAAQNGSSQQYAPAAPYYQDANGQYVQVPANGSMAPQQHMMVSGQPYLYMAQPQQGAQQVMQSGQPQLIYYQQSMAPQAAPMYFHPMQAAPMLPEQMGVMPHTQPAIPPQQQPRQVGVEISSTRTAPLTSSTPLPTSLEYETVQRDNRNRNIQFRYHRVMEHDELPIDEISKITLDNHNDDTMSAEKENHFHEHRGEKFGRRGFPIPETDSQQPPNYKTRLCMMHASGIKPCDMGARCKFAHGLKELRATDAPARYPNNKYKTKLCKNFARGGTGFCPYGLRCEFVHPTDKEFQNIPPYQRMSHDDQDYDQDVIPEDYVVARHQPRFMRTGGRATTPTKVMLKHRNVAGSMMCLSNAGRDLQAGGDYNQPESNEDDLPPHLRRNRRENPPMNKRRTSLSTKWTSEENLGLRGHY

[7] = biological target: Alkaline phosphatase, placental type (Homo sapiens, UniProt P05187); experiment: PLAP enzyme inhibitors, confirmation, biochemical, luminescence (AID 1512); type: functional
Alkaline phosphatase, placental type, sequence (P05187 whole entry, the tested form may be a part): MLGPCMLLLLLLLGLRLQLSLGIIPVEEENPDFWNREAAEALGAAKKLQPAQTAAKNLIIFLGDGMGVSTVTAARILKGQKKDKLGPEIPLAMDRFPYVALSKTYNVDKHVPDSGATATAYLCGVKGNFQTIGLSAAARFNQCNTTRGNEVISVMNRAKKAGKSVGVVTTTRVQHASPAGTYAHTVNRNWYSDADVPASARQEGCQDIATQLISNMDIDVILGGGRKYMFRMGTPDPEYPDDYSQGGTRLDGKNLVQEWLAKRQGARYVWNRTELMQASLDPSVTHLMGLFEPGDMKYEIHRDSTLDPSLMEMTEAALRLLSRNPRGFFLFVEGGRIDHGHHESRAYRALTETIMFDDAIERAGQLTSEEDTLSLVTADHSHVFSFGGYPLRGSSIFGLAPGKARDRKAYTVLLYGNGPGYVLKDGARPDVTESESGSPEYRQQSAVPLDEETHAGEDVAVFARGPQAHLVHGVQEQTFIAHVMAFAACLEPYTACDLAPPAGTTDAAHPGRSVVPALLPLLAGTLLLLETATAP

Fatty acid synthase [8] = biological target: T5, Fatty acid synthase (Homo sapiens, UniProt P49327); experiment: FAS thioesterase domain inhibitors, dose response, biochemical, endpoint fluorescence intensity, uHTS hits (AID 624327); type: functional;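 note: fluorescence from hydrolysis of an O-methyl fluorescein acyl ester substrate by the enzyme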
T5 sequence (P49327 whole entry, the tested form may be a part): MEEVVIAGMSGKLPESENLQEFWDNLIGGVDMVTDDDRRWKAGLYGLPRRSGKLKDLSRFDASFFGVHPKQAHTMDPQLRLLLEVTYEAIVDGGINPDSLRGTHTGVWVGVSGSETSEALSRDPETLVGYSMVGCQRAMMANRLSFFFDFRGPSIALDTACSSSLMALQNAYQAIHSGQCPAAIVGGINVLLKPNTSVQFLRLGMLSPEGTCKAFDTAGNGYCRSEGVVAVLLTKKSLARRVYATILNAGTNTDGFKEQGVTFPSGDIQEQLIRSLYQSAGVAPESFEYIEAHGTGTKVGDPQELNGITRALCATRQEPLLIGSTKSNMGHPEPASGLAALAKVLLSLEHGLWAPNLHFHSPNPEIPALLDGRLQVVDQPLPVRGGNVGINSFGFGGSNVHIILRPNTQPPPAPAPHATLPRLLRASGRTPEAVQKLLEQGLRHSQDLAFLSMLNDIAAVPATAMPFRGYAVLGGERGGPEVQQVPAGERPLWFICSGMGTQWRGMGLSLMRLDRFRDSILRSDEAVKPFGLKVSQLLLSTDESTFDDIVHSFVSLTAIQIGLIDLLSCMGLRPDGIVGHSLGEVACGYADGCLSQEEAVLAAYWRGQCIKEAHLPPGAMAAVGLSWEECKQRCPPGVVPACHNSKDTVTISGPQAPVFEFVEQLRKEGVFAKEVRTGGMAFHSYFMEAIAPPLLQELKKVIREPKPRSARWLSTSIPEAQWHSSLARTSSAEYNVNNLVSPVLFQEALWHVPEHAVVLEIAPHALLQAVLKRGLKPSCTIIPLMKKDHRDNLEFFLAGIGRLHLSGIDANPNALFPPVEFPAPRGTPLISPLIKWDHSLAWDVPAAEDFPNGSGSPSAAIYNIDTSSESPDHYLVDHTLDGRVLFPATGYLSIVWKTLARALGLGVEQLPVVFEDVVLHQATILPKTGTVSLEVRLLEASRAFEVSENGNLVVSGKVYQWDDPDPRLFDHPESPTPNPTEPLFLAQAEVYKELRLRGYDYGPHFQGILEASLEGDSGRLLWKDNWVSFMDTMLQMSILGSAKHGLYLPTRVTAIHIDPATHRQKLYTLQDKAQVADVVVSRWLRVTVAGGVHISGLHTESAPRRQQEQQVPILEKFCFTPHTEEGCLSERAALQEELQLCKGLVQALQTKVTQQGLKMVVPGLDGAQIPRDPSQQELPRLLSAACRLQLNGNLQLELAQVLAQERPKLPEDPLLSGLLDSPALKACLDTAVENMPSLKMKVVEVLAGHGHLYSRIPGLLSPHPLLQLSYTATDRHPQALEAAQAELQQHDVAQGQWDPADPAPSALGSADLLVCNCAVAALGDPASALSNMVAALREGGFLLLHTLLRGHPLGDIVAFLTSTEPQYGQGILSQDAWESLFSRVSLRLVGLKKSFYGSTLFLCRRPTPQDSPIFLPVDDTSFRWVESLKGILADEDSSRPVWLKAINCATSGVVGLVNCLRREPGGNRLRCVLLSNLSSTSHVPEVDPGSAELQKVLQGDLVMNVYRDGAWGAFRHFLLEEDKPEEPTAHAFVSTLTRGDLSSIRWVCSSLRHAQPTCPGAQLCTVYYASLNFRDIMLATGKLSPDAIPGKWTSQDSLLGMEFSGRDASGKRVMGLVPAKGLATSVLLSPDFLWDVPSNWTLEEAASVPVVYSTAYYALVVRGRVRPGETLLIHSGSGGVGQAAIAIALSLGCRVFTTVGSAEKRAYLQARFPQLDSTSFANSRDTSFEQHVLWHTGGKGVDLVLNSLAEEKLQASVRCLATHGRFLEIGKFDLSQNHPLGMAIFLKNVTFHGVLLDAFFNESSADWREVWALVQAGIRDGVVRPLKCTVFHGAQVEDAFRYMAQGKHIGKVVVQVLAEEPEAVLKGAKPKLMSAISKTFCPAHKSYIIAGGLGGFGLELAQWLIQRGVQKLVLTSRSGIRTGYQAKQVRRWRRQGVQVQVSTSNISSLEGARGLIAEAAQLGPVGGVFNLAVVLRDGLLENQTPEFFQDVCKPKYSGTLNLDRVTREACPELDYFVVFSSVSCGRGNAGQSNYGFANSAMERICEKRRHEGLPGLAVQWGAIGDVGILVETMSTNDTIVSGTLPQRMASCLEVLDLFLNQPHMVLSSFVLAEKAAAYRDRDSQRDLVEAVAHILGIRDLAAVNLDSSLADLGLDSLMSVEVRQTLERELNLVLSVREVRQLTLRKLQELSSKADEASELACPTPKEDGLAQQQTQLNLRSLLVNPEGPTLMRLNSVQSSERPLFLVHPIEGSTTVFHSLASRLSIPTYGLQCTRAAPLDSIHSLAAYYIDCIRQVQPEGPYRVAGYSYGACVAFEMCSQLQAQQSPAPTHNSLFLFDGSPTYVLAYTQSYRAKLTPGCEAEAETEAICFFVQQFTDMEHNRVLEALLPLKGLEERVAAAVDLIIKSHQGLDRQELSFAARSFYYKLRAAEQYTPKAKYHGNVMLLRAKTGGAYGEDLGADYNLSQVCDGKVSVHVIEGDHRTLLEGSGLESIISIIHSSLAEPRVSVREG

Fatty acid synthase [9] = biological target: T5, Fatty acid synthase; experiment: FAS thioesterase domain inhibitors, dose response, biochemical, kinetic fluorescence intensity (AID 624326); type: functional;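 note: rate of fluorescence rise from hydrolysis of a fluorogenic O-methyl fluorescein ester substrate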
[10] = biological target: Luciferin 4-monooxygenase (Photinus pyralis, UniProt P08659); experiment: firefly luciferase enzyme inhibitors, dose response, biochemical, luminescence (AID 1891)
[11] = Luminescence Cell-Based Dose Confirmation HTS to Identify Inhibitors of Platelet Dense Granule Release. [Related pubchem assays: 1663 (Primary HTS), 1678 (Summary of Project)]; type: functional
[12] = biological target: T6, High affinity choline transporter 1 (Homo sapiens, UniProt Q9GZV3); experiment: CHT inhibitors, dose response, cell-based, 5-point CRC, membrane potential dye (AID 504840); type: functional
T6 sequence (Q9GZV3 whole entry): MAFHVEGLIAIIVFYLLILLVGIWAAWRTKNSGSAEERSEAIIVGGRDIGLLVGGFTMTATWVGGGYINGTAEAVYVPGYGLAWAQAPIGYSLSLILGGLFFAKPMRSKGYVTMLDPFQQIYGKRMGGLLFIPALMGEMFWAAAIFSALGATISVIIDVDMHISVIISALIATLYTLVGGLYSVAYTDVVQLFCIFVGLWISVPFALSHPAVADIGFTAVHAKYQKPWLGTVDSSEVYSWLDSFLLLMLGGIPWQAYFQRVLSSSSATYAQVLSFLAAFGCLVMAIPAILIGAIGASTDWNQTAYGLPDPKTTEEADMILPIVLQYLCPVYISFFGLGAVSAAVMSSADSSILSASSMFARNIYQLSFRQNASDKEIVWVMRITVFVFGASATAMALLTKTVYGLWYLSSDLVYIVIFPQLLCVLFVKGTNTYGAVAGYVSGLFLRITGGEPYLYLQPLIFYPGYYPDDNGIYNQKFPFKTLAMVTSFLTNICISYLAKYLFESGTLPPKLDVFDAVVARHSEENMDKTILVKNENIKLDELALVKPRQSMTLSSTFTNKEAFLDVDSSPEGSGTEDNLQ

[13] = Luminescence Cell-Based Dose Retest to Confirm Inhibitors of Cancer Stem Cells. [Related pubchem assays (depositor defined):AID2717, AID2721]; type: functional; conditions: Homo sapiens

For `O=C(/C=C/c1cccc([N+](=O)[O-])c1)c1ccco1`, the AC50 [1] was 4 µM (active).
For `COC(=O)c1sc(=S)sc1C(=O)OC`, the IC50 [2] was > 66 µM (inactive) and the IC50 [3] was > 66 µM (inactive).
For `C#CCOc1ccc(/C=C2/C(=O)ON=C2C)cc1OCC`, the IC50 (Genome polyprotein) was > 100 µM (active).
For `CCCSc1nc(O)c(C(c2ccc(OC)c(O)c2)c2c(O)nc(SCCC)n(C)c2=O)c(=O)n1C`, the IC50 (Large T antigen) was > 100 µM (active) and the IC50 (Genome polyprotein) was 42.1 µM (active).
For `c1ccc(COC(CN2CCCCCC2)CN2CCCCCC2)cc1`, the EC50 [4] was 6.68 µM (active).
With `CCN(CC)CCCNC(=O)CCC(=O)NNc1nc2ccccc2c2nc(C)nn12` the EC50 [5] was 160 µM (active), the EC50 [6] was 0.93 µM (active) and the IC50 [7] was > 100 µM (inactive).
For `COc1ccc([N+](=O)[O-])cc1NC(=O)CC(c1ccccc1)c1ccccc1`, the IC50 (Fatty acid synthase [8]) was 60.1 µM (inactive) and the IC50 (Fatty acid synthase [9]) was 32.8 µM (inactive).
With `Cc1ccc(OCCOc2cccc(C=C3C(=O)NC(=O)NC3=O)c2)c(C)c1` the IC50 (Genome polyprotein) was 35.5 µM (active).
For `CC1(C)N=C(SCC(=O)Nc2ccccc2)C(c2ccc(Cl)cc2)=N1`, the IC50 [2] was > 66 µM (inactive) and the IC50 [3] was > 66 µM (inactive).
For `Cc1c(CCOC(=O)c2ccc([N+](=O)[O-])cc2)sc[n+]1CC(=O)c1ccccc1`, the EC50 [4] was 5.96 µM (active).
In the case of `COc1ccc(-c2nnc3n(CCc4ccccc4)c(=O)c4ccccc4n23)c(OC)c1`, the EC50 [10] was > 112 µM (not active), the EC50 [11] was > 112 µM (not active) and the AC50 [1] was 7.83 µM (active).
In the case of `COc1ccccc1N1CCc2c(C)nc3c(OC)cccc3c21`, the EC50 [4] was 4.73 µM (active).
For `CC(C)c1ccccc1NC(=O)COC(=O)c1cc([N+](=O)[O-])ccc1N1CCOCC1`, the IC50 (Fatty acid synthase [8]) was 2.95 µM (active) and the IC50 (Fatty acid synthase [9]) was 2.46 µM (active).
For `Cc1cccc(-n2cc(CN3CCN(Cc4nccn4C)CC3)c(-c3cccc(F)c3)n2)c1`, the IC50 [12] was 13.5 µM (active).
In the case of `CCCc1cc(=O)[nH]c(-n2nc3c(c2O)CCCC3)n1`, the IC50 [7] was > 100 µM (inactive).
For `CC(=O)n1c2ccccc2c2c1c1ccccc1n2C`, the IC50 [2] was > 66 µM (inactive) and the IC50 [3] was > 66 µM (inactive).
With `OCC1(Cc2ccccc2)CCN(Cc2ccc(C(F)(F)F)cc2)CC1` the EC50 [4] was 2.11 µM (active).
With `Cc1ccc(N2C(=O)CC(SCC(=O)Nc3ccc(S(N)(=O)=O)cc3)C2=O)cc1` (stereo not given) the IC50 [2] was > 66 µM (inactive) and the IC50 [3] was > 66 µM (inactive).
In the case of `COc1ccc(C(=O)COC(=O)c2cc([N+](=O)[O-])ccc2N2CCOCC2)c(OC)c1`, the AC50 [1] was 10.2 µM (active), the IC50 (Fatty acid synthase [8]) was 1.66 µM (active) and the IC50 (Fatty acid synthase [9]) was 1.63 µM (active).
In the case of `CCC(C)N/C=C1/C(=O)NC(=O)N(c2ccccc2)C1=O` (stereo not given), the IC50 [2] was > 66 µM (inactive) and the IC50 [3] was > 66 µM (inactive).
With `O=C(NC1(C(F)(F)F)Oc2cc(Cl)c(Cl)cc2O1)N1CCC2(CC1)OCCO2` the IC50 [7] was > 100 µM (inactive).
For `CC(NCCC(Cc1ccccc1)c1ccco1)c1ccccc1` (stereo not given), the EC50 [4] was 1.68 µM (active).
For `O=C(NCCN1CCCC1)c1ccc2c(c1)N(Cc1cccc(Cl)c1)C(=O)c1ccccc1S2(=O)=O`, the AC50 [13] was > 195 µM (inactive) and the IC50 [12] was 11.5 µM (active).
With `COc1ccc2c(c1)OC[C@H]1[C@H]2N2C(=O)c3cc(C)ccc3NC(=O)[C@@]2(C)[C@H]1c1ccccc1` the AC50 [1] was 1.86 µM (active).
For `Cc1cc(-c2ccc(/C=N/n3cnnc3)o2)c(C)c([N+](=O)[O-])c1`, the IC50 (Fatty acid synthase [8]) was 12.5 µM (active) and the IC50 (Fatty acid synthase [9]) was 9.46 µM (active).
With `C/C(=N\NC(=O)c1nnn(-c2nonc2N)c1-c1ccc(Cl)c(Cl)c1)c1ccncc1` the IC50 (Fatty acid synthase [8]) was 28 µM (inactive) and the IC50 (Fatty acid synthase [9]) was 20.9 µM (inactive).
For `Cn1nnc2c(C(N)=O)ncn2c1=O` [TEMOZOLOMIDE], the IC50 [2] was > 66 µM (inactive) and the IC50 [3] was 43.4 µM (inactive).
